According to PubChem BioAssay (NCI):
Several values for one entry are separate records, joined by “and”; a condition that tells them apart may be missing. Identical values can stand only once.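 Protocol summary: plate cells (96-well), add compound at 5 concentrations, incubate 48 h, interpolate endpoints linearly. Abbreviation: GI50, concentration required for 50% inhibition of growth. At the TGI there is no net growth.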

Assays:
Assay in all cases: NCI tumour cell line growth inhibition, 48 h
SF-268 CNS = test system: SF-268 CNS
MCF7 breast = test system: MCF7 breast
A549 NSCLC = test system: A549 NSCLC
NCI-H460 lung = test system: NCI-H460 lung
OVCAR-8 ovarian = test system: OVCAR-8 ovarian
SF-295 CNS = test system: SF-295 CNS
SK-MEL-2 melanoma = test system: SK-MEL-2 melanoma
OVCAR-5 ovarian = test system: OVCAR-5 ovarian
A498 renal = test system: A498 renal
ACHN renal = test system: ACHN renal

SMILES | GI50 (SF-268 CNS) | TGI (SF-268 CNS) | GI50 (MCF7 breast) | TGI (MCF7 breast) | GI50 (A549 NSCLC) | TGI (A549 NSCLC) | GI50 (NCI-H460 lung) | TGI (NCI-H460 lung) | GI50 (OVCAR-8 ovarian) | TGI (OVCAR-8 ovarian) | GI50 (SF-295 CNS) | TGI (SF-295 CNS) | GI50 (SK-MEL-2 melanoma) | TGI (SK-MEL-2 melanoma) | GI50 (OVCAR-5 ovarian) | TGI (OVCAR-5 ovarian) | GI50 (A498 renal) | TGI (A498 renal) | GI50 (ACHN renal) | TGI (ACHN renal)
COC1=CC(=O)c2nc(Cl)ccc2C1=O | 1.65 µM | 3.19 µM | 1.91 µM | 4.19 µM | 12.8 µM | 26.1 µM | 14 µM | 29.3 µM | 1.68 µM | 3.11 µM | 1.69 µM | 3.51 µM | 2.07 µM | 3.98 µM | 2.06 µM | 4.88 µM | 12 µM | 24.3 µM | 1.67 µM | 3.04 µM
O=C(O)CCC(C(=O)O)N1C(=O)C2C3CCC(C3)C2C1=O (stereo not drawn) |  | > 100 µM |  | > 100 µM |  | > 100 µM |  | > 100 µM |  | > 100 µM |  | > 100 µM |  | > 100 µM |  | > 100 µM |  | > 100 µM |  | > 100 µM
COc1cc2c(cc1C)NC(=O)/C2=C\c1c[nH]c2ccccc12 | 12 µM | 36.3 µM | 12.4 µM | 49.7 µM | 28.4 µM | > 100 µM | 4.93 µM | 41.9 µM | 20.3 µM | 67.2 µM | 6.28 µM | 38 µM | 4.04 µM | 25 µM | 13.5 µM | 42.7 µM | 11.2 µM | 26.9 µM | 11.5 µM | 27.3 µM
CCCN1CCC(c2ccc(Nc3nc(Nc4cc(F)ccc4C(N)=O)c4cc[nH]c4n3)c(OC)c2)CC1 | 3.42 µM | 7.8 µM | 0.0185 µM | 4.23 µM | 0.154 µM | 4.68 µM | 0.147 µM | 1.43 µM | 2.23 µM | 7.79 µM | 3.86 µM | 8.37 µM | 1.86 µM | 5.78 µM | 2.78 µM | 9.48 µM | 1.17 µM | 5.07 µM | 3.13 µM | 7.03 µM
Cn1c2ccccc2c2c(=O)n(CCCC(=O)OC(=NC3CCCCC3)NC3CCCCC3)c3c(-c4ccccc4)nnn3c21 | 98.2 µM | > 100 µM | 64.1 µM | > 100 µM | > 100 µM | > 100 µM | > 100 µM | > 100 µM | > 100 µM | > 100 µM | 79 µM | > 100 µM | > 100 µM | > 100 µM | > 100 µM | > 100 µM | 65.8 µM | > 100 µM | > 100 µM | > 100 µM
O=C1NC(c2cccc(OCc3ccccc3)c2)Nc2ccccc21 (stereo not drawn) |  | > 51 µM |  | 15.2 µM |  | > 49.6 µM |  | 22.9 µM |  | 27.5 µM |  | 4.12 µM |  | 30 µM |  | > 22.7 µM |  | 4.68 µM |  | 28.7 µM
COC(=O)[C@]12CC[C@@H](C)[C@H](C)[C@@H]1C1=CC[C@@H]3[C@@]4(C)C(C=O)=C[C@@](C)(COC(=O)/C=C/c5ccccc5)[C@@H]4[C@H](O)C[C@@]3(C)[C@]1(C)CC2 | 3.43 µM | 48.3 µM | 2.37 µM | 11.3 µM | 3.73 µM | 22 µM | 2.96 µM | 10.2 µM | 3.98 µM | 30.3 µM | 2.06 µM | 5.78 µM | 3.21 µM | 12.8 µM | 3.08 µM | 13.6 µM | 4.8 µM | 23.7 µM | 2.76 µM | 9.95 µM
O=[N+]([O-])c1ccc(Sc2ccncn2)c([N+](=O)[O-])c1 | 2.75 µM | 10.2 µM | 2.46 µM | 7.74 µM | 4.3 µM | 16.4 µM | 3.18 µM | 10.8 µM | 3.47 µM | 13.3 µM | 7.29 µM | 20.3 µM | 2.96 µM | 8.96 µM | 5.25 µM | 17.7 µM | 8.71 µM | 22.7 µM | 2.16 µM | 5.82 µM
C=CCc1c(O)c(C(=O)/C=C/c2ccccc2)c(OC)c2ccoc12 | 2.8 µM | 10.7 µM | 2.73 µM | 10.4 µM | 4.41 µM | 22.1 µM | 2.79 µM | 10.7 µM | 3.13 µM | 13.6 µM | 2.44 µM | 7.26 µM | 3.04 µM | 13.8 µM | 3.22 µM | 12.7 µM | 1.74 µM | 9.4 µM | 3.79 µM | 13.8 µM
O=C(O)Cc1cccc2c(=O)c3cccc([N+](=O)[O-])c3oc12 |  | > 100 µM |  | > 100 µM |  | > 100 µM |  | > 100 µM |  | > 100 µM |  | > 100 µM |  | > 100 µM |  | > 100 µM |  | > 100 µM |  | > 100 µM
COc1ccc(OC)c(/C=C/c2nc(SCc3ccccc3)n(-c3ccc(Cl)cc3)n2)c1 | 8.39 µM | > 100 µM | 4.78 µM | > 100 µM | 6.79 µM | > 100 µM | 4.17 µM | > 100 µM | 9.36 µM | > 100 µM | 3.5 µM | 36.6 µM | 6.38 µM | > 100 µM | > 100 µM | > 100 µM | 4.54 µM | 88.4 µM | 23.2 µM | > 100 µM
C/C(=N/N=C(N)N)c1ccc(NC(=O)Nc2ccc(/C(C)=N/N=C(N)N)cc2)cc1 | 17.2 µM | > 71.2 µM | 4.48 µM | 31.2 µM | 19.4 µM | 54.8 µM | 13.5 µM | 48.8 µM | 21.8 µM | > 78.8 µM | 12.4 µM | 28.4 µM | 18.4 µM | 60.6 µM | 17.9 µM | 56.6 µM | 23.5 µM | 69.9 µM | 20.7 µM | > 55.4 µM
C/C(=N/Nc1nc(C)cc(=O)[nH]1)C(=O)O |  | > 100 µM |  | > 100 µM |  | > 100 µM |  | > 100 µM |  | > 100 µM |  | > 100 µM |  | > 100 µM |  | > 100 µM |  | > 100 µM |  | > 100 µM
Cc1ccc(OCC2OC(n3cnc4c(Br)nc(Br)nc43)CC2Oc2ccc(C)cc2)cc1 (stereo not drawn) |  | 25.4 µM | 2.52 µM | 8.4 µM and 30.3 µM |  | 30 µM and > 41.9 µM | 1.86 µM and 10.7 µM | 6.07 µM and 28 µM | 18.2 µM | 42.7 µM and 14.3 µM | 2.22 µM | 5.28 µM and 25.9 µM | 14.1 µM | 28.3 µM and 8.15 µM | 16.1 µM | 34.2 µM and 42.2 µM | 22.9 µM | 20.6 µM and 41 µM | 5.29 µM | 14.8 µM and 4.93 µM
